Activity calls are given as the source filed them. The calls are words filed in the database; no cut-off is given here.
Key:
Mus musculus [1] = experiment: In vivo behavioral response evoked when a dose of 100 microg injected into mice under light ether anesthesia; No response; assay type: functional, organism-based
Mus musculus [2] = experiment: In vivo toxic dose of injected compound at a dose of 10 to 100 ug at which 50% of mice died within 1 hr of treatment; assay type: ADME, organism-based
Mus musculus [3] = experiment: In vivo toxic dose of injected compound at a dose of 5 to 100 ug at which 50% of mice died within 1 hr of treatment; assay type: ADME, organism-based

SMILES | Activity (Mus musculus [1]) | further results
NCC(O)c1cc(O)c(O)c(SCC(N)C(=O)O)c1 (stereo unspecified) | inactive | 
NCC(O)c1ccc(O)c2c1SCC(C(=O)O)N2 (stereo unspecified) |  | LD50 (Mus musculus [2]): 23.4 µg
NCC(O)c1cc(SCC(N)C(=O)O)c(O)c2c1SCC(C(=O)O)N2 (stereo unspecified) | inactive | 
NCC(O)c1c2c(c(O)c(SCC(N)C(=O)O)c1SCC(N)C(=O)O)NC(C(=O)O)CS2 (stereo unspecified) | inactive | 
NCC(O)c1cc(SCC(N)C(=O)O)c(O)c(O)c1SCC(N)C(=O)O (stereo unspecified) | inactive | 
NCC(O)c1cc(O)c2c(c1)SCC(C(=O)O)N2 (stereo unspecified) |  | LD50 (Mus musculus [3]): 17.8 µg

From ChEMBL document CHEMBL1129313, “Oxidation chemistry of (-)-norepinephrine in the presence of L-cysteine” (J Med Chem, 1996)
